Test results reported in paper PMC5766511 (Scientific Reports, 2018).
“Also recorded” adds a separate entry of the source.

How the values were obtained:
[1] = target: HLA-DR15 (DRB1*15:01) heterodimer (Homo sapiens, UniProt P01903+P01911); experiment: biochemical; format: binding
[2] = target: HLA-DR3 (DRB1*03:01) heterodimer (Homo sapiens, UniProt P01903+P01911, A100K/A102G/A103R/A169T/F55Y/I96L/K41T/L162R/M171V/P40S/Q125H/Q178H/Q39Y/R42S/S66N/T106N/T262R/W38E/Y61H); experiment: biochemical
[3] = tested on: draining lymph node cells of HLA-DR1 (DRB1*0101) transgenic mice; format: cell-based, mouse; conditions: n = 6
[4] = tested on: draining lymph node cells of HLA-DR1501 (DRB1*1501) transgenic mice; format: cell-based, mouse; conditions: primed with 25 μg recombinant ZIKV Env; day 10 DLN cells; positive if > 2 SD above mean without antigen; n = 6; Fig. 2B
[5] = tested on: draining lymph node cells of HLA-DQ8 (DQB1*0302) transgenic mice; format: cell-based, mouse; conditions: n = 6
[6] = tested on: splenocytes of ZIKV (PF13/251013-18) infected AG129 mice; format: cell-based, mouse; conditions: n = 5

Sequence of HLA-DR3 (DRB1*03:01) heterodimer (P01903 26-254 limits assumed, other chains not shown): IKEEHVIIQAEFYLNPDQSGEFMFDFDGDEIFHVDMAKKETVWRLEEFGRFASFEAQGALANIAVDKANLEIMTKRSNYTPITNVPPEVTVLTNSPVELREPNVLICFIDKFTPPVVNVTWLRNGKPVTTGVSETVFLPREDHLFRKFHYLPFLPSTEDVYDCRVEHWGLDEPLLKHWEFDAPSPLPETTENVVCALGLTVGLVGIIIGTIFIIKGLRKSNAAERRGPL

Compound: CC(C)C[C@H](NC(=O)[C@H](Cc1ccc(O)cc1)NC(=O)[C@H](C)NC(=O)[C@H](CCCNC(=N)N)NC(=O)[C@H](CC(C)C)NC(=O)[C@H](CCC(N)=O)NC(=O)[C@H](CCC(=O)O)NC(=O)[C@H](C)NC(=O)[C@@H](N)CCC(=O)O)C(=O)N[C@@H](CC(=O)O)C(=O)NCC(=O)N[C@H](C(=O)NCC(=O)N[C@H](C(=O)N[C@@H](CCC(=O)O)C(=O)O)C(C)C)[C@@H](C)O [A3 152–166]
- IC50 [1]: 40 nM

Compound: CC[C@H](C)[C@H](NC(=O)[C@@H](NC(=O)[C@H](CCCCN)NC(=O)[C@H](C)NC(=O)[C@H](C)N)[C@@H](C)O)C(=O)N[C@@H](C)C(=O)N[C@@H](Cc1ccc(O)cc1)C(=O)N[C@@H](CC(=O)O)C(=O)N[C@@H](CCC(=O)O)C(=O)N[C@@H](CCC(=O)O)C(=O)N[C@@H](C)C(=O)N[C@@H](CCCNC(=N)N)C(=O)N[C@@H](CCCNC(=N)N)C(=O)NCC(=O)N[C@@H](CC(C)C)C(=O)N[C@@H](CCC(=O)O)C(=O)O [MT2-16]
- IC50 [2]: 50 nM

Compound: FNCLGMSNRDFLEGVSGATW [WNV P1]
- IFNγ ELISpot response of ZIKV Env primed T cells to peptide (in words), HLA-DR1 [3]: significant responses
- IFNγ ELISpot response of ZIKV Env primed T cells to peptide (in words), HLA-DR1501 [4]: cross-reactive responses
- IFNγ ELISpot response of ZIKV Env primed T cells to peptide (in words), HLA-DQ8 [5]: significant responses
- IFNγ ELISpot response of splenic cells to peptide [6]: Strong responses; also recorded: of similar magnitude to the ZIKV p1 response

Compound: KAACPTMGEAHNDKRADPAF [WNV P8, WNV Env variant of ZIKV Env peptide 8]
- IFNγ ELISpot response of ZIKV Env primed T cells to peptide (in words), HLA-DQ8 [5]: cross-reactive epitope recognition
